Results from patent US4021563A, “Method of treating cardiac arrhythmia with γ-piperidino-butyrophenones” (priority 1975, dated 1977).
“Also recorded” adds a separate entry of the source. Structures can show the parent of a compound that is named as a salt.

Experiments:
[1] = tested on: ouabain-induced arrhythmia; test: ouabain-induced arrhythmia in conscious rabbits, curative effect (reversal); assay type: in vivo, rabbit; conditions: reversal at least 1 min within 10 minutes
Source text: (§1) Thus, acid-addition salts formed by admixture of a γ-piperidino-butyrophenone base with an equivalent of an acid, suitably in a neutral solvent, are formed with such acids as sulfuric, phosphoric, hydrochloric, hydrobromic, citric, lactic, tartaric, acetic, and related acids. For purposes of this invention, the substituted γ-piperidino-butyrophenones are equivalent to their non-toxic acid-addition salts. The antiarrhythmic activity of the compounds of the present invention compared with that of some clinically used antiarrhythmic drugs was determined as follows.
(§2) Intravenous infusion of ouabain to conscious rabbits produces ventricular arrhythmias of short duration. An increase in the minimal dose of ouabain required to produce an arrhythmia may be taken as a measure of the antiarrhythmic action of the drug.
A substance was considered curative, if it was able to reverse the ouabain-induced arrhythmia for at least 1 min. within 10 minutes after the injection.

[2] = tested on: ouabain-induced arrhythmias; test: ouabain-induced arrhythmia in conscious rabbits, prophylactic effect; assay type: in vivo, rabbit; conditions: for arrhythmogenic dose of ouabain increased to more than 110 %, number of rabbits: 1 minute before ouabain; for arrhythmogenic dose of ouabain in % of control arrhythmogenic dose, m ± SD: physiol. saline 96 ± 14; for antiarrhythmic activity compared with clinically used drugs: prophylactic and curative effect
Source text: as §1, §2
In all experiments with drug treatment the control dose of ouabain required to produce arrhythmias in an animal was obtained the day before.
The test compound was administered intravenously to rabbits 1 minute before the ouabain challenge, and the arrhythmogenic dose of ouabain after treatment was evaluated in percent of the control arrhythmogenic dose. If this dose amounts to more the 110 % of the control arrhythmogenic dose recorded the day before, the test compound is regarded as having antiarrhymic activity.

[3] = toxic effects of active doses in antiarrhythmic tests
Source text: as §1, with “follows. The compounds were tested for their ability to prevent and reverse ouabain-induced arrhythmias in conscious rabbits, and the method used was essentially according to Basil et al. (Brit. J. Pharmacol. 1974, 50, 323- 33).” for “follows.”

[4] = tested on: ouabain-induced ventricular tachycardia and fibrillation; conditions: anaesthetized guinea pigs, effective dosage; cited from earlier work
cardiac arrhythmia = conditions: cited from earlier work
[5] = tested on: arrhythmia induced by aconitine; conditions: in vivo; cited from earlier work
[6] = tested on: cardiac effects of catecholamines; conditions: Tuck 1973; Petersen 1974; cited from earlier work
tranquilizing effect = conditions: in vivo
[7] = tested on: ventricular extrasystoles (VES); test: double-blind clinical test, ventricular extrasystoles in coronary care unit patients; assay type: in vivo, human patients
Protocol: All patients with ventricular extrasystoles (VES) admitted to a coronary care unit suspected of having acute myocardial infarction are included in the investigation. This was carried out in a double-blind manner with metylperone against placebo (metylperone injectable without metylperone). When a patient arrives at the unit, they are monitored on an oscilloscope for registration of the electrocardiogram (ECG). In a 1 hour long period of observation the patient is characterized in respect to the type and the frequency of the arrhythmia. Depending on this and on the estimated age of the infarction, the patient is distributed to one of four groups. A bottle (metylperone or placebo) is chosen from a box, containing identical bottles, and in the following 10 minutes a total of 50 mg metylperone (or placebo) is injected intravenously as 5 injections with 2 min. intervals. The ECG registration is continued for 2 hours. All ECGes in the three hours period are analyzed manually and the arrhythmias are recorded according to frequency and type. The psychic status and the cardiovascular status are checked several times during the three hours.

[8] = tested on: arrhythmia induced by aconitine; test: aconitine-induced arrhythmia; assay type: in vivo; conditions: 0.1-10.0 mg/kg
ventricular arrhythmia = test: intravenous metylperone in patients with myocardial infarction, ventricular arrhythmia and side effects; assay type: in vivo, human patients
Source text: Equi-antiarrhythmic doses of previously used drugs produce various cardiovascular side effects as well as agitation and confusion.

CCCC1(CC)CCN(CCCC(=O)c2ccc(F)cc2)CC1 [FG 5226, 4-fluoro-γ-(4-ethyl-4-n-propyl-piperidino)-butyrophenone]
curative effect, number of rabbits reversed/tested ([1]; 0.1 mg/kg i.v.): 3/4 | curative effect, number of rabbits reversed/tested ([1]; 1.0 mg/kg i.v.): 2/4 | arrhythmogenic dose of ouabain increased to more than 110 %, number of rabbits ([2]; 0.1 mg/kg i.v., 4 rabbits): 3 number of rabbits | arrhythmogenic dose of ouabain in % of control arrhythmogenic dose, m ± SD ([2]; 0.1 mg/kg i.v.): 109 ± 21 % of control arrhythmogenic do | antiarrhythmic activity compared with clinically used drugs ([2]; 0.1 mg/kg i.v.): more effective than lidocaine 1-5 mg/kg, procainamide 1- 10 mg/kg, quinidine 1 mg/kg, and propranolol 0.5 mg/kg; also recorded: equiactive (i.e., equally active) with quinidine 10 mg/kg, and propranolol 2 mg/kg | arrhythmogenic dose of ouabain increased to more than 110 %, number of rabbits ([2]; 1.0 mg/kg i.v., 4 rabbits): 1 number of rabbits | arrhythmogenic dose of ouabain in % of control arrhythmogenic dose, m ± SD ([2]; 1.0 mg/kg i.v.): 93 ± 18 % of control arrhythmogenic do | toxic effects of the active doses ([3]; active antiarrhythmic doses): In contrast to metylperone and FG 5226 the active doses of the known antiarrhythmic drugs produced various toxic effects

NC(=O)OC1CCN(CCCC(=O)c2ccc(F)cc2)C2CCCCC12 (stereo not shown) [L 7810]
antagonism of ouabain-induced ventricular tachycardia and fibrillation [4]: 0.3 to 3 mg/kg | antiarrhythmic properties / activity of prior art compounds (cardiac arrhythmia): exert antiarrhythmic properties | inhibition of arrhythmia induced by aconitine [5]: inhibit arrhythmia induced by aconitine

CCN(CC)CC(=O)Nc1c(C)cccc1C [Lidocaine, lidocaine]
curative effect, number of rabbits reversed/tested ([1]; 1.0 mg/kg i.v.): 1/3 | curative effect, number of rabbits reversed/tested ([1]; 5.0 mg/kg i.v.): 2/4 | arrhythmogenic dose of ouabain increased to more than 110 %, number of rabbits ([2]; 1.0 mg/kg i.v., 4 rabbits): 0 number of rabbits | arrhythmogenic dose of ouabain in % of control arrhythmogenic dose, m ± SD ([2]; 1.0 mg/kg i.v.): 73 ± 25 % of control arrhythmogenic do | arrhythmogenic dose of ouabain increased to more than 110 %, number of rabbits ([2]; 5.0 mg/kg i.v., 5 rabbits): 0 number of rabbits | arrhythmogenic dose of ouabain in % of control arrhythmogenic dose, m ± SD ([2]; 5.0 mg/kg i.v.): 91 ± 21 % of control arrhythmogenic do

CC1CCN(CCCC(=O)c2ccc(F)cc2)CC1 [Metylperone, 4-fluoro-γ-(4-methyl-piperidino)-butyrophenone hydrochloride]
potentiation of catecholamines [6]: does not potentiate the cardiac effects of catecholamines | curative effect, number of rabbits reversed/tested ([1]; 0.1 mg/kg i.v.): 5/5 | curative effect, number of rabbits reversed/tested ([1]; 1.0 mg/kg i.v.): 5/5 | tranquilizing effect (tranquilizing effect): has a tranquilizing effect | activity against ouabain-induced ventricular tachycardia in conscious rabbits ([2]; 0.1 mg/kg): extremely active | arrhythmogenic dose of ouabain increased to more than 110 %, number of rabbits ([2]; 0.1 mg/kg i.v., 4 rabbits): 3 number of rabbits | arrhythmogenic dose of ouabain in % of control arrhythmogenic dose, m ± SD ([2]; 0.1 mg/kg i.v.): 129 ± 20 % of control arrhythmogenic do | antiarrhythmic activity compared with clinically used drugs ([2]; 0.1 mg/kg i.v., hydrochloride): more effective than lidocaine 1-5 mg/kg, procainamide 1- 10 mg/kg, quinidine 1 mg/kg, and propranolol 0.5 mg/kg; also recorded: equiactive (i.e., equally active) with quinidine 10 mg/kg, and propranolol 2 mg/kg | arrhythmogenic dose of ouabain increased to more than 110 %, number of rabbits ([2]; 1.0 mg/kg i.v., 4 rabbits): 3 number of rabbits | arrhythmogenic dose of ouabain in % of control arrhythmogenic dose, m ± SD ([2]; 1.0 mg/kg i.v.): 126 ± 30 % of control arrhythmogenic do | antiarrhythmic effect in patients with acute myocardial infarction ([7]; 50 mg i.v.): has an antiarrhythmic effect in patients with acute myocardial infarction | mean total VES ± SD, 0 - 60 min. after inj. ([7]; AMI patients, N = 6, 50 mg i.v., placebo 418 ± 394): 212 ± 138 | mean total VES ± SD, 61 - 120 min. after inj. ([7]; AMI patients, N = 6, 50 mg i.v., placebo 644 ± 815): 93 ± 89 | mean total VES ± SD, control hour ([7]; AMI patients, N = 6, before injection (baseline)): 372 ± 148 | mean total VES ± SD, 0 - 60 min. after inj. ([7]; not AMI patients, N = 2, 50 mg i.v., placebo 643 ± 290): 251 ± 85 | mean total VES ± SD, 61 - 120 min. after inj. ([7]; not AMI patients, N = 2, 50 mg i.v., placebo 695 ± 240): 348 ± 28 | mean total VES ± SD, control hour ([7]; not AMI patients, N = 2, before injection (baseline)): 321 ± 18 | aconitine inhibitory effect [8]: no aconitine inhibitory effect | side effects during treatment of cardiac arrhythmia (ventricular arrhythmia; human, in vivo): lack of side effects | side effects in patients (ventricular arrhythmia; human, in vivo, iv): without producing side effects | inhibition of ventricular arrhythmia in patients with myocardial infarction (ventricular arrhythmia; intravenous injection 10-50 mg): inhibit ventricular arrhythmia in patients with myocardial infarction | toxic effects of the active doses ([3]; in vivo): In contrast to metylperone and FG 5226 the active doses of the known antiarrhythmic drugs produced various toxic effects

CCN(CC)CCNC(=O)c1ccc(N)cc1 [Procainamide, procainamide]
curative effect, number of rabbits reversed/tested ([1]; 1.0 mg/kg i.v.): 0/4 | curative effect, number of rabbits reversed/tested ([1]; 10.0 mg/kg i.v.): 2/4 | arrhythmogenic dose of ouabain increased to more than 110 %, number of rabbits ([2]; 1.0 mg/kg i.v., 4 rabbits): 2 number of rabbits | arrhythmogenic dose of ouabain in % of control arrhythmogenic dose, m ± SD ([2]; 1.0 mg/kg i.v.): 111 ± 18 % of control arrhythmogenic do | arrhythmogenic dose of ouabain increased to more than 110 %, number of rabbits ([2]; 10.0 mg/kg i.v., 4 rabbits): 1 number of rabbits | arrhythmogenic dose of ouabain in % of control arrhythmogenic dose, m ± SD ([2]; 10.0 mg/kg i.v.): 104 ± 20 % of control arrhythmogenic do | antiarrhythmic properties / activity of prior art compounds (cardiac arrhythmia): activity as antiarrhythmic agents | toxic effects of prior art antiarrhythmic drugs (cardiac arrhythmia): various toxic effects

CC(C)NCC(O)COc1cccc2ccccc12 (stereo not shown) [Propranolol, propranolol]
curative effect, number of rabbits reversed/tested ([1]; 0.5 mg/kg i.v.): 1/5 | curative effect, number of rabbits reversed/tested ([1]; 2.0 mg/kg i.v.): 4/4 | arrhythmogenic dose of ouabain increased to more than 110 %, number of rabbits ([2]; 0.5 mg/kg i.v., 4 rabbits): 2 number of rabbits | arrhythmogenic dose of ouabain in % of control arrhythmogenic dose, m ± SD ([2]; 0.5 mg/kg i.v.): 98 ± 28 % of control arrhythmogenic do | arrhythmogenic dose of ouabain increased to more than 110 %, number of rabbits ([2]; 2.0 mg/kg i.v., 4 rabbits): 3 number of rabbits | arrhythmogenic dose of ouabain in % of control arrhythmogenic dose, m ± SD ([2]; 2.0 mg/kg i.v.): 121 ± 26 % of control arrhythmogenic do | antiarrhythmic properties / activity of prior art compounds (cardiac arrhythmia): activity as antiarrhythmic agents | toxic effects of prior art antiarrhythmic drugs (cardiac arrhythmia): various toxic effects

C=C[C@H]1C[N@@]2CC[C@H]1C[C@@H]2[C@@H](O)c1ccnc2ccc(OC)cc12 [Quinidine, quinidine]
curative effect, number of rabbits reversed/tested ([1]; 1.0 mg/kg i.v.): 2/4 | curative effect, number of rabbits reversed/tested ([1]; 10.0 mg/kg i.v.): 4/4 | arrhythmogenic dose of ouabain increased to more than 110 %, number of rabbits ([2]; 1.0 mg/kg i.v., 4 rabbits): 2 number of rabbits | arrhythmogenic dose of ouabain in % of control arrhythmogenic dose, m ± SD ([2]; 1.0 mg/kg i.v.): 104 ± 10 % of control arrhythmogenic do | arrhythmogenic dose of ouabain increased to more than 110 %, number of rabbits ([2]; 10.0 mg/kg i.v., 4 rabbits): 3 number of rabbits | arrhythmogenic dose of ouabain in % of control arrhythmogenic dose, m ± SD ([2]; 10.0 mg/kg i.v.): 131 ± 42 % of control arrhythmogenic do | antiarrhythmic properties / activity of prior art compounds (cardiac arrhythmia): activity as antiarrhythmic agents | toxic effects of prior art antiarrhythmic drugs (cardiac arrhythmia): various toxic effects

CN(C)CCCN1c2ccccc2Sc2ccc(Cl)cc21 [chlorpromazine]
potentiation of catecholamines [6]: potentiation of catecholamines
